Assay results: patent US10004803B2, “Low, immune enhancing, dose mtor inhibitors and uses thereof” (Novartis AG, priority 2013, dated 2018)
Where “and” joins values, the source holds several entries; their conditions need not be identical. Identical values can stand only once. Like-named read-outs stand apart in the source and are kept apart here. Marks after values point to notes of the source that are not given here.

What was measured:
[1] = tested on: A/H1N1 strain A/New Jersey/8/76; type: in vivo, human; conditions: for Percentage of subjects who seroconvert to heterologous strain 4 weeks after seasonal influenza vaccination: A/H1N1 strain: A/NewJersey/8/76
[2] = tested on: A/H3N2 strain A/Victoria/361/11; assay: HI titers / seroconversion to heterologous influenza strain not contained in the vaccine; type: in vivo, human; conditions: for Percentage of subjects who seroconvert to heterologous strain 4 weeks after seasonal influenza vaccination: A/H3N2 strain: A/Victoria/361/11
[3] = Adverse event assessment in elderly volunteers; type: in vivo, human; conditions: for Treatment-related AEs: Total AE(s): N = 53
Protocol: Adverse event assessment and blood collection for hematologic and biochemical safety assessments were performed during study visits. Adverse event information was also collected in diaries that subjects filled out at home during the 6 weeks they were on study drug. Data on all adverse events were collected from the time of informed consent until 30 days after the last study visit. Events were classified by the investigators as mild, moderate or severe.
The 4 SAEs were retinal hemorrhage of the left eye with subsequent blindness in a subject with normal platelet counts who had completed a 6 week course of 5 mg weekly RAD001 6 weeks previously; severe back pain in a subject treated with placebo and severe gastroenteritis in a subject treated with placebo. The most common RAD001-related AE was mouth ulcer that, in the majority of cases, was of mild severity.

[4] = tested on: H1N1 A/California/07/2009; assay: Hemagglutination inhibition (HI) titers after seasonal influenza vaccination in elderly volunteers pretreated with RAD001 or placebo; type: in vivo, human
Protocol: (§1) From December 2011 to April 2012, 218 elderly volunteers were enrolled in a randomized, observer-blind, placebo-controlled trial. The subjects were randomized to treatment arms using a validated automated randomization system with a ratio of RAD001 to placebo of 5:2 in each treatment arm. The treatment arms were:
(§2) The trial was observer-blind because the placebo in the RAD001 0.5 mg daily and 20 mg weekly cohorts differed slightly from the RAD001 tablets in those cohorts. […] The treatment duration for all cohorts was 6 weeks during which time subjects underwent safety evaluations in the clinic every 2 weeks. After subjects had been dosed for 4 weeks, RAD001 steady state levels were measured pre-dose and at one hour post dose. After completing the 6 week course of study drug, subjects were given a 2 week drug free break to reverse any possible RAD001-induced immunosuppression, and then were given a 2012 seasonal influenza vaccination (Agrippal®, Novartis Vaccines and Diagnostics, Siena, Italy) containing the strains H1N1 A/California/07/2009, H3N2 A/Victoria/210/2009, B/Brisbane/60/2008. Four weeks after influenza vaccination, subjects had serum collected for influenza titer measurements. Antibody titers to the 3 influenza vaccine strains as well as to 2 heterologous strains (A/H1N1 strain A/New Jersy/8/76 and A/H3N2 strain A/Victoria/361/11) were measured by standard hemagglutination inhibition assay (Kendal, A P et al. (1982) Concepts and procedures for laboratory-based influenza surveillance. Atlanta: Centers for Disease Control and Prevention B17-B35). Levels of IgG and IgM specific for the A/H1N1/California/07/2009 were measured in serum samples taken before and 4 weeks after influenza vaccination as described previously (Spensieri, F. et al. (2013) Proc. Natl. Acad. Sci. USA 110:14330-14335). Results were expressed as fluorescence intensity.
(§3) The primary analysis of geometric mean titer ratios was done using a normal Bayesian regression model with non-informative priors. This model was fitted to each antibody titer on the log scale. The primary outcome in each model was the Day 84 measurement. The Day 63 measurement was included in the outcome vector. The model fitted using SAS 9.2 proc mixed with the prior statement. The covariance structure of the matrix was considered as unstructured (option type=UN). A flat prior was used. For the secondary analysis of seroconversion rates, logistic regression was used.
(§4) The ability of RAD001 to improve immune function in elderly volunteers was evaluated by measuring the serologic response to the 2012 seasonal influenza vaccine. The hemagglutination inhibition (HI) geometric mean titers (GMT) to each of the 3 influenza vaccine strains at baseline and 4 weeks after influenza vaccination are provided in Table 4. The primary analysis variable was the HI GMT ratio (4 weeks post vaccination/baseline). […] This endpoint was chosen because a 1.2-fold increase in the influenza GMT ratio induced by the MF-59 vaccine adjuvant was associated with a decrease in influenza illness (Iob, A et al. (2005) Epidemiol Infect 133:687-693).
(§5) Rates of seroconversion 4 weeks after influenza vaccination were also evaluated. Seroconversion was defined as the change from a negative pre-vaccination titer (i.e., HI titer <1:10) to post-vaccination HI titer≥1:40 or at least 4-fold increase from a non-negative (≥1:10) pre-vaccination HI titer.

B/Brisbane/60/2008 = assay: as above; type: in vivo, human
Protocol: as §1, §2, §3, §4, §5

H3N2 A/Victoria/210/2009 = assay: as above; type: in vivo, human
Protocol: as §1, §2, §3, §4, §5

[5] = tested on: PD-1 positive and PD-1 negative CD4 and CD8 T cells; set-up: species or system human; conditions: in vivo
[6] = tested on: 3 influenza vaccine strains (H1N1, H3N2 and B); assay: Primary endpoint: HI GMT increase relative to placebo in at least 2 out of 3 influenza vaccine strains; type: in vivo, human; conditions: for primary endpoint (>=1.2-fold GMT increase relative to placebo in at least 2 out of 3 vaccine strains): ITT population
Protocol: as §4
Elderly volunteers >=65 years of age were randomized to one of the 3 RAD001 treatment groups (50 subjects per arm) or placebo (20 subjects per arm). Subjects were treated with study drug for 6 weeks, given a 2 week break, and then received influenza (Aggrippal, Novartis) and pneumoccal (Pneumovax 23, Merck), vaccinations. Response to influenza vaccination was assessed by measuring the geometric mean titers (GMTs) by hemagglutination inhibition assay to the 3 influenza strains (H1N1, H3N2 and B influenza subtypes) in the influenza vaccine 4 weeks after vaccination. The primary endpoints of the study were (1) safety and tolerability and (2) a 1.2 fold increase in influenza titers as compared to placebo in ⅔ of the influenza vaccine strains 4 weeks after vaccination. This endpoint was chosen because a 1.2 fold increase in influenza titers is associated with a decrease in influenza illness post vaccination, and therefore is clinically relevant. […] The pneumococcal vaccine contains antigens from 23 pneumococcal serotypes. Antibody titers to 7 of the serotypes were measured in our subjects.

[7] = tested on: A/H1N1/California/07/2009; assay: Anti-influenza IgG and IgM levels in serum before and 4 weeks after vaccination; type: in vivo, human; conditions: all p values >0.05 by Kruskal-Wallis rank sum test
Protocol: as §2, with “After completing the 6 week course of study drug, subjects were given a 2 week drug free break to reverse any possible RAD001-induced immunosuppression, and then were given a 2012 seasonal influenza vaccination (Agrippal®, Novartis Vaccines and Diagnostics, Siena, Italy) containing the strains H1N1 A/California/07/2009, H3N2 A/Victoria/210/2009, B/Brisbane/60/2008. Four weeks after influenza vaccination, subjects had serum collected for influenza titer measurements.” left out

clinical = conditions: human, in vivo
[8] = in vivo
influenza = conditions: cited from earlier work
[9] = cited from earlier work
PI3K/mTOR = conditions: relatively higher concentrations; Serra et al., 2008; cited from earlier work
mTOR = mTOR (Homo sapiens, UniProt P42345); conditions: low concentration; Serra et al., 2008; cited from earlier work
[10] = Intention to Treat Population, 0.5 mg
[11] = Intention to Treat Population, 5 mg
[12] = Intention to Treat Population, 20 mg
[13] = Subjects with Baseline Titers <=40, 0.5 mg
[14] = Subjects with Baseline Titers <=40, 5 mg
[15] = Subjects with Baseline Titers <=40, 20 mg

With CO[C@H]1C[C@@H]2CC[C@@H](C)[C@@](O)(O2)C(=O)C(=O)N2CCCC[C@H]2C(=O)O[C@H]([C@H](C)C[C@@H]2CC[C@@H](OCCO)[C@H](OC)C2)CC(=O)[C@H](C)/C=C(\C)[C@@H](O)[C@@H](OC)C(=O)[C@H](C)C[C@H](C)/C=C/C=C/C=C/1C [RAD001, (1R,9S,12S,15R,16E,18R,19R,21R,23 S,24E,26E,28E,30S,32S,35R)-1,18-dihydroxy-12-{(1R)-2-[(1 S,3R,4R)-4-(2-hydroxyethoxy)-3-methoxycyclohexyl]-1-methylethyl}-19,30-dimethoxy-15,17,21,23,29,35-hexamethyl-11,36-dioxa-4-aza-tricyclo[30.3.1.04,9]hexatriaconta-16,24,26,28-tetraene-2,3,10,14,20-pentaone] the “increase in HI GMT ratio for heterologous strain as compared to placebo” value ([1]; 4 weeks after vaccination) was “higher”, the “Percentage of subjects who seroconvert to heterologous strain 4 weeks after seasonal influenza vaccination” value ([1]; RAD001 5 mg weekly) was 16% and the “Percentage of subjects who seroconvert to heterologous strain 4 weeks after seasonal influenza vaccination” value ([1]; RAD001 20 mg weekly) was 8%. The “increase in HI GMT ratio for heterologous strain as compared to placebo” value ([2]; 4 weeks after vaccination) was “higher”, the “Percentage of subjects who seroconvert to heterologous strain 4 weeks after seasonal influenza vaccination” value ([2]; RAD001 0.5 mg daily) was 38% and the “Percentage of subjects who seroconvert to heterologous strain 4 weeks after seasonal influenza vaccination” value ([2]; RAD001 5 mg weekly) was 39%*. For the same compound, the “Percentage of subjects who seroconvert to heterologous strain 4 weeks after seasonal influenza vaccination” value ([2]; RAD001 20 mg weekly) was 40%*, the “H3N2 heterologous strain seroconversion rate” value ([2]; pooled RAD001 cohorts, versus 20% for placebo (p=0.007)) was 39% and the “Treatment-related AEs: Total AE(s)” value ([3]; RAD001 0.5 mg daily) was 35 n (%). The “Treatment-related AEs: Total AE(s)” value ([3]; RAD001 5 mg weekly) was 46 n (%), the “Treatment-related AEs: Total AE(s)” value ([3]; RAD001 20 mg weekly) was 109 n (%) and the “deaths during the study” value ([3]; elderly volunteers, 6 week treatment) was “No deaths occurred”. For the same compound, the “severe AEs assessed as related to RAD001” value ([3]; mouth ulcers in a subject treated with 20 mg weekly) was “Only one severe AE”, the “Percent of subjects with seroconversion to influenza 4 weeks after vaccination” value (“Percent of subjects with seroconversion” for short) [4, 10] was 27% and the “Percent of subjects with seroconversion” value [4, 11] was 27%. For the same compound, the “Percent of subjects with seroconversion” value [4, 12] was 17%, the “Percent of subjects with seroconversion” value [4, 13] was 42% and the “Percent of subjects with seroconversion” value [4, 14] was 45%. For the same compound, the “Percent of subjects with seroconversion” value [4, 15] was 36%, the “Percent of subjects with seroconversion” value (B/Brisbane/60/2008; [10]) was 27% and the “Percent of subjects with seroconversion” value (B/Brisbane/60/2008; [11]) was 22%. For the same compound, the “Percent of subjects with seroconversion” value (B/Brisbane/60/2008; [12]) was 19%, the “Percent of subjects with seroconversion” value (B/Brisbane/60/2008; [13]) was 40* Percent and the “Percent of subjects with seroconversion” value (B/Brisbane/60/2008; [14]) was 33%. The “Percent of subjects with seroconversion” value (B/Brisbane/60/2008; [15]) was 28%, the “Percent of subjects with seroconversion” value (H3N2 A/Victoria/210/2009; [10]) was 27% and the “Percent of subjects with seroconversion” value (H3N2 A/Victoria/210/2009; [11]) was 24%. For the same compound, the “Percent of subjects with seroconversion” value (H3N2 A/Victoria/210/2009; [12]) was 25%, the “Percent of subjects with seroconversion” value (H3N2 A/Victoria/210/2009; [13]) was 64% and the “Percent of subjects with seroconversion” value (H3N2 A/Victoria/210/2009; [14]) was 53%. For the same compound, the “Percent of subjects with seroconversion” value (H3N2 A/Victoria/210/2009; [15]) was 71%, the “decrease in PD-1-positive CD4 T cells as compared to the placebo cohort” value [5] was −37.1-−28.5% and the “decrease in PD-1-positive CD8 T cells as compared to the placebo cohort” value [5] was −43.3-−38.5%. The “decrease in PD-1 positive CD4 T cells compared to placebo cohort” value [5] was 30.2% and 32.7%, the “decrease in PD-1 positive CD8 T cells compared to placebo cohort” value [5] was 37.4% and 41.4% and the “increase in PD-1-negative CD4 T cells as compared to the placebo cohort” value [5] was 3.0-4.9%. The “percentage of CD4 PD-1 positive T cells versus baseline” value [5] was “decreased from baseline”, the “percentage of CD8 PD-1 positive cells versus baseline” value [5] was “decreased from baseline” and the “significant differences in the percentages of naïve lymphocytes versus placebo” value [5] was “not detected”. The “primary endpoint (>=1.2-fold GMT increase relative to placebo in at least 2 out of 3 vaccine strains)” value ([6]; 0.5 mg daily or 5 mg weekly) was “met the GMT primary endpoint”, the “primary endpoint (>=1.2-fold GMT increase relative to placebo in at least 2 out of 3 vaccine strains)” value ([6]; 20 mg weekly) was “but not higher dose (20 mg weekly) cohort met the primary endpoint” and the “RAD001 concentration versus increase in titer to each influenza vaccine strain” value ([6]; RAD001 concentration 1 hour post dose after 4 weeks dosing) was “inverse exposure/response relationship”. The “increase in influenza titers in subjects with low baseline titers versus ITT population” value ([6]; subset with baseline influenza titers <=1:40) was “greater RAD001-associated increase in titers”, the “change from baseline to 4 weeks post vaccination in anti-H1N1 influenza IgG and IgM levels versus placebo” value [7] was “No significant difference” and the concentration at 4 weeks (clinical; 0.5 mg daily) was 0.9 ng/mL. The concentration at 4 weeks (clinical; 5 mg weekly) was less than 0.3 ng/mL, the concentration at 4 weeks (clinical; 20 mg weekly) was 0.7 ng/mL and the “trough level of study dosing regimens relative to approved transplant and oncology regimens” value ([8]; human) was 3-20 fold lower. For the same compound, the “average RAD001 trough level” value [8] was “below detection limits”.
In the case of CO[C@H]1C[C@@H]2CC[C@@H](C)[C@@](O)(O2)C(=O)C(=O)N2CCCC[C@H]2C(=O)O[C@H]([C@H](C)C[C@@H]2CC[C@@H](O)[C@H](OC)C2)CC(=O)[C@H](C)/C=C(\C)[C@@H](O)[C@@H](OC)C(=O)[C@H](C)C[C@H](C)/C=C/C=C/C=C/1C [rapamycin], the “response to influenza vaccination” value (influenza; elderly mice, 6 weeks of treatment) is listed as “improved response to influenza vaccination”, the “serologic response to influenza as compared to placebo” value (influenza; mice vaccinated against influenza in the presence of rapamycin) is listed as “broader serologic response to influenza” and the lifespan ([9]; mice) is listed as “extend lifespan”. The spontaneous physical activity ([9]; old mice) was “increases spontaneous physical activity”.
For Cn1c(=O)n(-c2ccc(C(C)(C)C#N)cc2)c2c3cc(-c4cnc5ccccc5c4)ccc3ncc21 [BEZ235, 2-methyl-2-[4-(3-methyl-2-oxo-8-quinolin-3-yl-2,3-dihydro-imidazo[4,5-c]quinolin-1-yl)-phenyl]-propionitrile], the “concentration giving dual PI3K/mTOR inhibition” value (PI3K/mTOR) is listed as “approximately 500 nmol/L” and the “concentration at which mTOR inhibition predominates” value (mTOR) is listed as “less than 100 nmol/L”.
